Experimental data as given in publication PMC4658133, “Intrinsic Levanase Activity of Bacillus subtilis 168 Levansucrase (SacB)” (PLoS ONE, 2015).

Molecular target: T1, levansucrase (SacB) (Bacillus subtilis, UniProt P05655)
T1 construct: expressed in Escherichia coli BL21, ion exchange purified
T1 sequence (P05655 30-473): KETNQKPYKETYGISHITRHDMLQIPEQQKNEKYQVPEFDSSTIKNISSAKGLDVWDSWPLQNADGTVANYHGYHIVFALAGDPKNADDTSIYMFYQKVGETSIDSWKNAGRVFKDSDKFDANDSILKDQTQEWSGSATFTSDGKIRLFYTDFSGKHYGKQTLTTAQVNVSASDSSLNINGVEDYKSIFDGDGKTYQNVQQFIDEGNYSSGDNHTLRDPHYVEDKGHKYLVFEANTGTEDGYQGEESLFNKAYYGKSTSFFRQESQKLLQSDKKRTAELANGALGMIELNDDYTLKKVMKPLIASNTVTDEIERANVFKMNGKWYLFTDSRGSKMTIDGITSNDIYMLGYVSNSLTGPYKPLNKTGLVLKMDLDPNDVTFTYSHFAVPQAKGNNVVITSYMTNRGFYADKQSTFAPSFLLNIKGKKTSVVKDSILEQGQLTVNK
Test: HPAEC-PAD product profile after […] h
Format: biochemical
Conditions: fructosyl acceptor, 127 mM; donor 2.5 mM LMw levan; 50 mM sodium acetate, 1 mM CaCl2, pH 6.0

SMILES: OC[C@H]1OC(O)[C@H](O)[C@@H](O)[C@@H]1O (stereo partly shown) [glucose]
- HPAEC-PAD product profile after 5 h: These profile results from the fructosyl transfer from levan to glucose
